Assay results: patent US6693114B2, “4-oxo-1,4-dihydro[1,8]naphthyridine-3-carboxamides as antiviral agents” (Pharmacia & Upjohn Company, priority 2000, dated 2004)

Columns and labels:
HCMV polymerase = biological target: T1, HCMV polymerase (Human cytomegalovirus, UniProt P08546); assay: HCMV polymerase assay (scintillation proximity assay, modified version); type: biochemical; details: for IC50: modified HCMV polymerase SPA assay, compounds diluted in 100% DMSO, 4.5 mM DTT
T1 construct: made in house; host or cells: recombinant baculovirus-infected SF-9 cells
T1 sequence (P08546 whole entry): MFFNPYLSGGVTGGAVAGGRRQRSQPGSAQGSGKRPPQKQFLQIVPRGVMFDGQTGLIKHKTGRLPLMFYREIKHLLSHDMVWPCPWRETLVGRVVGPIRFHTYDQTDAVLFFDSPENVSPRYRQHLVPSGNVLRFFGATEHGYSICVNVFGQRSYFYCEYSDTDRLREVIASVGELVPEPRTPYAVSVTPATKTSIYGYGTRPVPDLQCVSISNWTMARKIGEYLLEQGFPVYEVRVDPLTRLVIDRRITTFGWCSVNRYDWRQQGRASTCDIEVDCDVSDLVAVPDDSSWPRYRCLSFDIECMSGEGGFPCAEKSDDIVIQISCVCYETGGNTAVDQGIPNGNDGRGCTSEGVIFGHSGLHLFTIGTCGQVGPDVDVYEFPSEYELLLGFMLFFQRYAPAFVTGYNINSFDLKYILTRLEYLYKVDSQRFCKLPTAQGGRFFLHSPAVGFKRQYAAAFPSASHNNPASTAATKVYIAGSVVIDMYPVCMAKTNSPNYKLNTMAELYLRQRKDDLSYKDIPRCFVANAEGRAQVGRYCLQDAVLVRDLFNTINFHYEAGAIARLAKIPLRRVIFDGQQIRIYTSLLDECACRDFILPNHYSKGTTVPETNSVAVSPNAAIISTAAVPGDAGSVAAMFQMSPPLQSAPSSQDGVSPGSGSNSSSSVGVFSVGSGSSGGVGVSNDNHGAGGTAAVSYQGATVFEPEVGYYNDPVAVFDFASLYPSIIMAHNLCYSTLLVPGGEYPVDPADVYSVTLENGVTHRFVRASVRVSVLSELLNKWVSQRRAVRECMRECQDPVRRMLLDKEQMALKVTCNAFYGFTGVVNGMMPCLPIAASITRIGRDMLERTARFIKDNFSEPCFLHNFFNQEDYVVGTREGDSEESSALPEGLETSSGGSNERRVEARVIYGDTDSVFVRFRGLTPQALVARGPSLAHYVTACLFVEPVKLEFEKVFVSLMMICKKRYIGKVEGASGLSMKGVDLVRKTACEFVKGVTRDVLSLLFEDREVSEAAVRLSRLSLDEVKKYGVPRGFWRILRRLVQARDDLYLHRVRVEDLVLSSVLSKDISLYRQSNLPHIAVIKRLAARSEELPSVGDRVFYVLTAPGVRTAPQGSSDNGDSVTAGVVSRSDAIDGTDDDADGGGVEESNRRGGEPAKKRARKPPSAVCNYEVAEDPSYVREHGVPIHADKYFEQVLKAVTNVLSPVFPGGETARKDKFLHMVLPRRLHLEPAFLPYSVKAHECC
Protocol: The HCMV polymerase assay is performed using a scintillation proximity assay (SPA) as described in several references, such as N. D. Cook, et al., Pharmaceutical Manufacturing International, pages 49-53 (1992); K. Takeuchi, Laboratory Practice, September issue (1992); U.S. Pat. No. 4,568,649 (1986); which are incorporated by reference herein. Reactions are performed in 96-well plates. The assay is conducted in 100 μl volume with 5.4 mM HEPES (pH 7.5), 11.7 mM KCl, 4.5 mM MgCl2, 0.36 mg/ml BSA, and 90 nM ^3H-dTTP. Assays are run with and without CHAPS, (3-[(3-cholamidopropyl)-dimethylammonio]-1-propane-sulfonate) at a final concentration of 2 mM. HCMV polymerase is diluted in enzyme dilution buffer containing 50% glycerol, 250 mM NaCl, 10 mM HEPES (pH 7.5), 100 μg/ml BSA, and 0.01% sodium azide. The HCMV polymerase, which is expressed in recombinant baculovirus-infected SF-9 cells and purified according to literature procedures, is added at 10% (or 10 μl) of the final reaction volume, i.e., 100 μl. Compounds are diluted in 50% DMSO and 10 μl are added to each well. Control wells contain an equivalent concentration of DMSO. Unless noted otherwise, reactions are initiated via the addition of 6 nM biotinylated poly(dA)-oligo(dT) template/primer to reaction mixtures containing the enzyme, substrate, and compounds of interest. Plates are incubated in a 25° C. or 37° C. H2O bath and terminated via the addition of 40 μl/reaction of 0.5 M EDTA (pH 8) per well. Reactions are terminated within the time-frame during which substrate incorporation is linear and varied depending upon the enzyme and conditions used, i.e., 30 min. for HCMV polymerase. Ten μl of streptavidin-SPA beads (20 mg/ml in PBS/10% glycerol) are added following termination of the reaction. Plates are incubated 10 min. at 37° C., then equilibrated to room temperature, and counted on a Packard Topcount. Linear regressions are performed and IC50's are calculated using computer software.
A modified version of the above HCMV polymerase assay is performed as described above, but with the following changes: Compounds are diluted in 100% DMSO until final dilution into assay buffer. In the previous assay, compounds are diluted in 50% DMSO. 4.5 mM dithiotherotol (DTT) is added to the polymerase buffer. […] All results are listed as Polymerase IC50 (μM) values. In Table 1, the term “nd” refers to activity data not determined.

VZV polymerase = VZV polymerase (Varicella-zoster virus, UniProt P09252); assay: VZV polymerase assay (Table 1, Polymerase IC50); type: biochemical; details: modified polymerase SPA assay
VZV polymerase, sequence (P09252 whole entry): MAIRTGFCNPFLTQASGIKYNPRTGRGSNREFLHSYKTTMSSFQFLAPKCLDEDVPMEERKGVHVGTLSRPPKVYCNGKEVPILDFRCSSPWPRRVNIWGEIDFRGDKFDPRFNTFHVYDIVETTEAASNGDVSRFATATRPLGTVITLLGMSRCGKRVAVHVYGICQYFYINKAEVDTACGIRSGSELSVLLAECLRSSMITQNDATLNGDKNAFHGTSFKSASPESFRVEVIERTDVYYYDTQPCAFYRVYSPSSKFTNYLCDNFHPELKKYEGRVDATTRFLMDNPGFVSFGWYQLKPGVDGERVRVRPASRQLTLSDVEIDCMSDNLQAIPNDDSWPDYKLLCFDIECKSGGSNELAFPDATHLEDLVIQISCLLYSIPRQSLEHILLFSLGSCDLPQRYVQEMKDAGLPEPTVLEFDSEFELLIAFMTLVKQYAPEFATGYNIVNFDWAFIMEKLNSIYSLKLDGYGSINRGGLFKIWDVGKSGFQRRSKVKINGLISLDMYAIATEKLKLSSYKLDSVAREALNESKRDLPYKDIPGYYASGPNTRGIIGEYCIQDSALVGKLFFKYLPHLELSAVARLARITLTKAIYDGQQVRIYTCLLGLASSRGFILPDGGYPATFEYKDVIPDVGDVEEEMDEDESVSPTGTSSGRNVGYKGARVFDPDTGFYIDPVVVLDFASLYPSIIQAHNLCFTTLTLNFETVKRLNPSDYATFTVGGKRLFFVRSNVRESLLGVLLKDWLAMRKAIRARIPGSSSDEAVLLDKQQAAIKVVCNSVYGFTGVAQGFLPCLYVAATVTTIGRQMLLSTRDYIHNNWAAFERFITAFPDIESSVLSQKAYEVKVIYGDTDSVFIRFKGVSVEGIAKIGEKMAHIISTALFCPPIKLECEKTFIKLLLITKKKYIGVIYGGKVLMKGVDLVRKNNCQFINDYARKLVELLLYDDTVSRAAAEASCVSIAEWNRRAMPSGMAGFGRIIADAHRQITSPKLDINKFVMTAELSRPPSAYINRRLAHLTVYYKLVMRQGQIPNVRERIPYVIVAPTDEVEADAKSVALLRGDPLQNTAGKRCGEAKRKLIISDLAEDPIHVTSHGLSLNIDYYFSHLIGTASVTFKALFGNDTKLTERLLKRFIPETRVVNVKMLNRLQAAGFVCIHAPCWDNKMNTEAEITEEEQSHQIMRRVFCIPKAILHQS

HSV polymerase = HSV polymerase (Human herpesvirus 1, UniProt P04293); assay: HSV polymerase assay (Table 1, Polymerase IC50); type: biochemical; details: modified polymerase SPA assay
HSV polymerase, sequence (P04293 whole entry): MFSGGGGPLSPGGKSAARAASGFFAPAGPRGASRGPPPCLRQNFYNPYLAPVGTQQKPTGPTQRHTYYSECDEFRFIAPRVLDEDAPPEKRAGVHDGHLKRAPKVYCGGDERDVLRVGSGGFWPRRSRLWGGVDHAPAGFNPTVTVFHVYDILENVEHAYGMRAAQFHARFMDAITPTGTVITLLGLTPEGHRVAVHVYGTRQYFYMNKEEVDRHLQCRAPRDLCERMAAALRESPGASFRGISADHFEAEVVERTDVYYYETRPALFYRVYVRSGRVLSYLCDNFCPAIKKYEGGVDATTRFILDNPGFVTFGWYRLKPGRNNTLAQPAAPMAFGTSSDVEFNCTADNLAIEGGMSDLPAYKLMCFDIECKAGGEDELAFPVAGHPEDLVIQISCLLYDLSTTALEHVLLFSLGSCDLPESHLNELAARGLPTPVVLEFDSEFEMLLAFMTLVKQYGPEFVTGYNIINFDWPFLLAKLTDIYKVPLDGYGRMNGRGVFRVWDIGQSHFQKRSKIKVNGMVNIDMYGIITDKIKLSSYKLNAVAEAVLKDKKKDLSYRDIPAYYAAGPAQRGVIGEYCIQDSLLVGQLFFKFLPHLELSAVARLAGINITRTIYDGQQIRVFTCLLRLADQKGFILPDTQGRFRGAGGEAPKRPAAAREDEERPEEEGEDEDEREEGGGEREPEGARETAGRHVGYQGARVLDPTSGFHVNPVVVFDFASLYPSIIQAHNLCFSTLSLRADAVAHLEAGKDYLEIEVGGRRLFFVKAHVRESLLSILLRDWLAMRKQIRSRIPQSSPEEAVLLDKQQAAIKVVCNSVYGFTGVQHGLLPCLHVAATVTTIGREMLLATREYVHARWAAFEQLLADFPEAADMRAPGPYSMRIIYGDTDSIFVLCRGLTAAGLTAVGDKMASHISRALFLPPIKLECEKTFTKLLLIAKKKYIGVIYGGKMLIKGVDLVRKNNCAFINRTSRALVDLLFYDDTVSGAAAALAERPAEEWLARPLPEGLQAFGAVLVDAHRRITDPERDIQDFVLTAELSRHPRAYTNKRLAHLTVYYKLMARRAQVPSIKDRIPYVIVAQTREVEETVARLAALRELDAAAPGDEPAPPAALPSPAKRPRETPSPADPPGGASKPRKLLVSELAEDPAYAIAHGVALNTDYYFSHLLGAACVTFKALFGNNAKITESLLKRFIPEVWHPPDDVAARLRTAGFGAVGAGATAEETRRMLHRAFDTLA

Structure (SMILES)	melting point [°C]	IC50 (HCMV polymerase) [µM]	inhibition at 20 µM (HCMV polymerase; at 20 μM) [%]	IC50 (VZV polymerase) [µM]	IC50 (HSV polymerase) [µM]
Cc1nc2c(cc1Br)c(=O)c(C(=O)NCc1ccc(Cl)cc1)cn2C [Example 1, 6-bromo-N-(4-chlorobenzyl)-1,7-dimethyl-4-oxo-1,4-dihydro[1,8]naphthyridine-3-carboxamide]	266 to 268				
Cn1cc(C(=O)NCc2ccc(Cl)cc2)c(=O)c2ccc(=O)[nH]c21 [Example 5, N-(4-Chlorobenzyl)-1-methyl-4,7-dioxo-1,4,7,8-tetrahydro[1,8]naphthyridine-3-carboxamide]		17.1			
CCOC(=O)c1cc2c(=O)c(C(=O)NCc3ccc(Cl)cc3)cn(C)c2nc1OC [Example 8, Ethyl 6-{[(4-chlorobenzyl)amino]carbonyl}-2-methoxy-8-methyl-5-oxo-5,8-dihydro[1,8]naphthyridine-3-carboxylate]			37		
COc1nc2c(cc1I)c(=O)c(C(=O)NCc1ccc(Cl)cc1)cn2C [Example 4, N-(4-Chlorobenzyl)-6-iodo-7-methoxy-1-methyl-4-oxo-1,4-dihydro[1,8]naphthyridine-3-carboxamide]		22.3			
COc1nc2c(cc1C#CCO)c(=O)c(C(=O)NCc1ccc(Cl)cc1)cn2C [Example 6, N-(4-chlorobenzyl)-6-(3-hydroxy-1-propynyl)-7-methoxy-1-methyl-4-oxo-1,4-dihydro[1,8]naphthyridine-3-carboxamide]		1.17			
Cc1nc2c(cc1C#CCO)c(=O)c(C(=O)NCc1ccc(Cl)cc1)cn2C [Example 2, N-(4-chlorobenzyl)-6-(3-hydroxy-1-propynyl)-1,7-dimethyl-4-oxo-1,4-dihydro[1,8]naphthyridine-3-carboxamide]	217 to 218	1.8		1.1	1.9
COc1nc2c(cc1CCCO)c(=O)c(C(=O)NCc1ccc(Cl)cc1)cn2C [Example 7, N-(4-Chlorobenzyl)-6-(3-hydroxypropyl)-7-methoxy-1-methyl-4-oxo-1,4-dihydro[1,8]naphthyridine-3-carboxamide]		0.46			
Cc1nc2c(cc1CCCO)c(=O)c(C(=O)NCc1ccc(Cl)cc1)cn2C [Example 3, N-(4-chlorobenzyl)-6-(3-hydroxypropyl)-1,7-dimethyl-4-oxo-1,4-dihydro[1,8]naphthyridine-3-carboxamide]	176 to 177	2.7		1.4	2.4
